# Data as given in patent US12281149B2, “Modulators of G-protein coupled receptors” (priority 2021, dated 2025).
# Where two headings read alike, the source gives them in different places. *1 amine or outer side, *2 acyl side, *3 side chain or, on linkers, in order; H or OH if unused. Where a SMILES comes first, the peptide text is derived from it. Side-chain parts run from the residue outwards. [ ]: non-standard residue; d: D form. The star is where a group is joined. Isobutyryl(2-(3-CN-5-F-Ph)) = CC(C)(C(=O)*)c1cc(F)cc(C#N)c1; C20 diacid = O=C(O)CCCCCCCCCCCCCCCCCCC(=O)*; X31 = CC(C)(C(=S)NCCC(=O)*)c1cc(F)cc(C#N)c1; γGlu = O=C(O)[C@H](CCC(=O)[*:2])N[*:1]; X34 = CCC(CC)(C(=O)*)c1ccc(Cl)c(Cl)c1; β2hAla(R) = C[C@H](CN[*:1])C(=O)[*:2]; NH(3-Cl-phenyl) = Clc1cccc(N*)c1; d(β3hD) = NC(CC(=O)O)CC(=O)O; AEEA = NCCOCCOCC(=O)O; Aib = CC(C)(N)C(=O)O; CO = O=C([*:1])[*:2]; GABA = NCCCC(=O)O; βAla = NCCC(=O)O
# Legend:
# Assay type in all cases: cell-based
# [1] = biological target: T1, GIP receptor (Homo sapiens, UniProt P48546); assay: HitHunter cAMP assay, GIP receptor; details: for Emax: read-out: Emax GIP-1R
# T1 sequence (P48546 22-466): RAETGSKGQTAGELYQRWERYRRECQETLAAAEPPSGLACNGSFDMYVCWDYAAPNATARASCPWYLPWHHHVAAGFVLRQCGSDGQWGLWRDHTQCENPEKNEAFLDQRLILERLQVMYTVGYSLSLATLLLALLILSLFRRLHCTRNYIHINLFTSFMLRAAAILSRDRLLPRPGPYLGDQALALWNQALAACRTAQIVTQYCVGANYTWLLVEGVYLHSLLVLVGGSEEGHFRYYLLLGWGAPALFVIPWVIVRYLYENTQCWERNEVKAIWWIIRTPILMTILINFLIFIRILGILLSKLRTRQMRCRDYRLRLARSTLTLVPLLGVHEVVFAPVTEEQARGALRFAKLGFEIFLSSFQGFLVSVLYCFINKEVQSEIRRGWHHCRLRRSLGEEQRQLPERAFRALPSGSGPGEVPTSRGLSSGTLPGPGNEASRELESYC
# [2] = biological target: T2, GLP-1 receptor (Homo sapiens, UniProt P43220); assay: PathHunter β-arrestin assay, GLP-1 receptor; set-up: host or cells: PathHunter CHO-K1 GLP1R β-Arrestin Cell Line
# [3] = biological target: T1, GIP receptor; assay: PathHunter β-arrestin assay, GIP receptor; set-up: host or cells: PathHunter CHO-K1 GIPR β-Arrestin Cell Line
# [4] = biological target: T2, GLP-1 receptor; assay: HitHunter cAMP assay, GLP-1 receptor; details: for Emax: read-out: Emax GLP-1R
# [5] = CHO cells stably expressing GIP receptor, cAMP accumulation, 30 min, read-out: EC50 GIP-1R
# [6] = CHO cells, cAMP, normalized to maximum signal from GIP (high) and DMSO (low)
# [7] = β-arrestin-2 recruitment, PathHunter CHO-K1 GLP1R β-Arrestin Cell Line, 90 min at 37° C., normalized to GLP-1, read-out: GLP-1R β Arrestin EC50
# [8] = β-arrestin-2 recruitment, PathHunter CHO-K1 GIPR β-Arrestin Cell Line, 90 min at 37° C., normalized to GIP, read-out: GIPR β Arrestin EC50
# [9] = CHO cells stably expressing human GLP-1 receptor, cAMP accumulation, 30 min, read-out: EC50 GLP-1R
# [10] = CHO cells, cAMP, normalized to maximum signal from GLP-1 (high) and DMSO (low)
# T2 sequence (P43220 24-463): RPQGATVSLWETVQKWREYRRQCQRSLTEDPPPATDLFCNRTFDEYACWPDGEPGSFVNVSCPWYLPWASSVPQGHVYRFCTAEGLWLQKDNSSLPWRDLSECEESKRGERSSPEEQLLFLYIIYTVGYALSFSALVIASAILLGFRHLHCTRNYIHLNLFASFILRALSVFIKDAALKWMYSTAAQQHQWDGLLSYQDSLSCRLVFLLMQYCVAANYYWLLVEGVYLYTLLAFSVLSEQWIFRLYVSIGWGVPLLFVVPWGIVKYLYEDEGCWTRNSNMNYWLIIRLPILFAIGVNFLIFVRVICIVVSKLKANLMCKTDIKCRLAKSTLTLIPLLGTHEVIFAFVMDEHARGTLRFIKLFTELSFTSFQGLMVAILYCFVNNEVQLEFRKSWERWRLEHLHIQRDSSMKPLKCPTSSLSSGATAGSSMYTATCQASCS
smiles,measurement,setting,value
CC[C@H](C)[C@H](NC(=O)[C@H](CC(C)C)NC(=O)[C@H](Cc1c[nH]c2ccccc12)NC(=O)[C@H](CCC(N)=O)NC(=O)[C@@H](NC(=O)[C@H](Cc1ccccc1)NC(=O)[C@H](C)NC(=O)[C@H](CCCCNC(=O)COCCOCCNC(=O)COCCOCCNC(=O)CC[C@H](NC(=O)CCCCCCCCCCCCCCCCCCC(=O)O)C(=O)O)NC(=O)[C@H](CCC(N)=O)NC(=O)[C@H](C)NC(=O)[C@@H](NC(=O)[C@H](CCCCN)NC(=O)[C@H](CC(=O)O)NC(=O)[C@H](CC(C)C)NC(=O)C(C)(C)NC(=O)[C@@H](NC(=O)[C@H](CO)NC(=O)[C@H](Cc1ccc(O)cc1)NC(=O)[C@H](CC(=O)O)NC(=O)[C@H](CO)NC(=O)[C@@H](NC(=O)[C@H](Cc1ccccc1)NC(=O)[C@@H](NC(=O)CNC(=O)[C@H](CCC(=O)O)NC(=O)CCNC(=S)C(C)(C)c1cc(F)cc(C#N)c1)[C@@H](C)O)[C@@H](C)O)[C@@H](C)CC)[C@@H](C)CC)C(C)C)C(=O)N[C@@H](C)C(=O)NCC(=O)NCC(=O)N1CCC[C@H]1C(=O)N[C@@H](CO)C(=O)N[C@@H](CO)C(=O)NCC(=O)N[C@@H](C)C(=O)N1CCC[C@H]1C(=O)N1CCC[C@H]1C(=O)N1CCC[C@H]1C(=O)N[C@@H](CO)C(N)=O [Compound 135] (X31-EGTFTSDYSI[Aib]LDKIAQK([AEEA-AEEA-γGlu-C20 diacid])AFVQWLIAGGPSSGAPPPS-NH2),EC50,[1]; [5],10 to 100 nM
same,Emax,[1]; [6],87%
same,EC50,[2]; [7],> 1000 nM
same,EC50,[3]; [8],> 1000 nM
same,EC50,[4]; [9],0.1 to 1 nM
same,Emax,[4]; [10],99%
CC[C@H](C)[C@H](NC(=O)[C@H](CC(C)C)NC(=O)[C@H](Cc1c[nH]c2ccccc12)NC(=O)[C@H](CCC(N)=O)NC(=O)[C@@H](NC(=O)[C@H](Cc1ccccc1)NC(=O)[C@H](C)NC(=O)[C@H](CCCCNC(=O)COCCOCCNC(=O)COCCOCCNC(=O)CC[C@H](NC(=O)CCCCCCCCCCCCCCCCCCC(=O)O)C(=O)O)NC(=O)[C@H](CCC(N)=O)NC(=O)[C@H](C)NC(=O)[C@@H](NC(=O)[C@H](CCCCN)NC(=O)[C@H](CC(=O)O)NC(=O)[C@H](CC(C)C)NC(=O)C(C)(C)NC(=O)[C@@H](NC(=O)[C@H](CO)NC(=O)[C@H](Cc1ccc(O)cc1)NC(=O)[C@H](CC(=O)O)NC(=O)[C@H](CO)NC(=O)[C@@H](NC(=O)[C@H](Cc1ccccc1)NC(=O)[C@@H](NC(=O)CNC(=O)[C@H](CCC(=O)O)NC(=O)[C@H](C)CNC(=O)C(C)(C)c1cc(F)cc(C#N)c1)[C@@H](C)O)[C@@H](C)O)[C@@H](C)CC)[C@@H](C)CC)C(C)C)C(=O)N[C@@H](C)C(=O)NCC(=O)NCC(=O)N1CCC[C@H]1C(=O)N[C@@H](CO)C(=O)N[C@@H](CO)C(=O)NCC(=O)N[C@@H](C)C(=O)N1CCC[C@H]1C(=O)N1CCC[C@H]1C(=O)N1CCC[C@H]1C(=O)N[C@@H](CO)C(N)=O [Compound 225] ({Isobutyryl(2-(3-CN-5-F-Ph))}-[β2hAla(R)]EGTFTSDYSI[Aib]LDKIAQK([AEEA-AEEA-γGlu-C20 diacid])AFVQWLIAGGPSSGAPPPS-NH2),EC50,[1]; [5],10 to 100 nM
same,Emax,[1]; [6],98%
same,EC50,[2]; [7],> 1000 nM
same,EC50,[3]; [8],> 1000 nM
same,EC50,[4]; [9],0.1 to 1 nM
same,Emax,[4]; [10],102%
CC[C@H](C)[C@H](NC(=O)[C@H](CC(C)C)NC(=O)[C@H](Cc1c[nH]c2ccccc12)NC(=O)[C@H](CCC(N)=O)NC(=O)[C@@H](NC(=O)[C@H](Cc1ccccc1)NC(=O)[C@H](C)NC(=O)[C@H](CCCCNC(=O)COCCOCCNC(=O)COCCOCCNC(=O)CC[C@H](NC(=O)CCCCCCCCCCCCCCCCCCC(=O)O)C(=O)O)NC(=O)[C@H](CCC(N)=O)NC(=O)[C@H](C)NC(=O)[C@@H](NC(=O)[C@H](CCCCN)NC(=O)[C@H](CC(=O)O)NC(=O)[C@H](CC(C)C)NC(=O)C(C)(C)NC(=O)[C@@H](NC(=O)[C@H](CO)NC(=O)[C@H](Cc1ccc(O)cc1)NC(=O)[C@H](CC(=O)O)NC(=O)[C@H](CO)NC(=O)[C@@H](NC(=O)[C@H](Cc1ccccc1)NC(=O)[C@@H](NC(=O)CNC(=O)[C@H](CCC(=O)O)NC(=O)CCNC(=O)C(CC)(CC)c1ccc(Cl)c(Cl)c1)[C@@H](C)O)[C@@H](C)O)[C@@H](C)CC)[C@@H](C)CC)C(C)C)C(=O)N[C@@H](C)C(=O)NCC(=O)NCC(=O)N1CCC[C@H]1C(=O)N[C@@H](CO)C(=O)N[C@@H](CO)C(=O)NCC(=O)N[C@@H](C)C(=O)N1CCC[C@H]1C(=O)N1CCC[C@H]1C(=O)N1CCC[C@H]1C(=O)N[C@@H](CO)C(N)=O [Compound 175] ({X34-βAla}-EGTFTSDYSI[Aib]LDKIAQK([AEEA-AEEA-γGlu-C20 diacid])AFVQWLIAGGPSSGAPPPS-NH2),EC50,[1]; [5],1 to 10 nM
same,Emax,[1]; [6],110%
same,EC50,[2]; [7],> 1000 nM
same,EC50,[3]; [8],< 1000 nM
same,EC50,[4]; [9],1 to 10 nM
same,Emax,[4]; [10],94%
CC[C@H](C)[C@H](NC(=O)[C@H](CC(C)C)NC(=O)[C@H](Cc1c[nH]c2ccccc12)NC(=O)[C@H](CCC(N)=O)NC(=O)[C@@H](NC(=O)[C@H](Cc1ccccc1)NC(=O)[C@H](C)NC(=O)[C@H](CCCCNC(=O)COCCOCCNC(=O)COCCOCCNC(=O)CC[C@H](NC(=O)CCCCCCCCCCCCCCCCCCC(=O)O)C(=O)O)NC(=O)[C@H](CCC(N)=O)NC(=O)[C@H](C)NC(=O)[C@@H](NC(=O)[C@H](CCCCN)NC(=O)[C@H](CC(=O)O)NC(=O)[C@H](CC(C)C)NC(=O)C(C)(C)NC(=O)[C@@H](NC(=O)[C@H](CO)NC(=O)[C@H](Cc1ccc(O)cc1)NC(=O)[C@H](CC(=O)O)NC(=O)[C@H](CO)NC(=O)[C@@H](NC(=O)[C@H](Cc1ccccc1)NC(=O)[C@@H](NC(=O)CNC(=O)[C@H](CCC(=O)O)NC(=O)CCCNC(=O)CNC(=O)Nc1cccc(Cl)c1)[C@@H](C)O)[C@@H](C)O)[C@@H](C)CC)[C@@H](C)CC)C(C)C)C(=O)N[C@@H](C)C(=O)NCC(=O)NCC(=O)N1CCC[C@H]1C(=O)N[C@@H](CO)C(=O)N[C@@H](CO)C(=O)NCC(=O)N[C@@H](C)C(=O)N1CCC[C@H]1C(=O)N1CCC[C@H]1C(=O)N1CCC[C@H]1C(=O)N[C@@H](CO)C(N)=O [Compound 273] ({NH(3-Cl-phenyl)-CO}-G[GABA]EGTFTSDYSI[Aib]LDKIAQK([AEEA-AEEA-γGlu-C20 diacid])AFVQWLIAGGPSSGAPPPS-NH2),EC50,[1],1 to 10 nM
same,Emax,[1]; CHO,99%
same,EC50,[2],> 1000 nM
same,EC50,[3],> 1000 nM
same,EC50,[4],1 to 10 nM
same,Emax,[4]; CHO,106%
CC[C@H](C)[C@H](NC(=O)[C@H](CC(C)C)NC(=O)[C@H](Cc1c[nH]c2ccccc12)NC(=O)[C@H](CCC(N)=O)NC(=O)[C@@H](NC(=O)[C@H](Cc1ccccc1)NC(=O)[C@H](C)NC(=O)[C@H](CCCCNC(=O)COCCOCCNC(=O)COCCOCCNC(=O)CC[C@H](NC(=O)CCCCCCCCCCCCCCCCCCC(=O)O)C(=O)O)NC(=O)[C@H](CCC(N)=O)NC(=O)[C@H](C)NC(=O)[C@@H](NC(=O)[C@H](CCCCN)NC(=O)[C@H](CC(=O)O)NC(=O)[C@H](CC(C)C)NC(=O)C(C)(C)NC(=O)[C@@H](NC(=O)[C@H](CO)NC(=O)[C@H](Cc1ccc(O)cc1)NC(=O)[C@H](CC(=O)O)NC(=O)[C@H](CO)NC(=O)[C@@H](NC(=O)[C@H](Cc1ccccc1)NC(=O)[C@@H](NC(=O)CNC(=O)C[C@@H](CC(=O)O)NC(=O)CCNC(=O)C(C)(C)c1cc(F)cc(C#N)c1)[C@@H](C)O)[C@@H](C)O)[C@@H](C)CC)[C@@H](C)CC)C(C)C)C(=O)N[C@@H](C)C(=O)NCC(=O)NCC(=O)N1CCC[C@H]1C(=O)N[C@@H](CO)C(=O)N[C@@H](CO)C(=O)NCC(=O)N[C@@H](C)C(=O)N1CCC[C@H]1C(=O)N1CCC[C@H]1C(=O)N1CCC[C@H]1C(=O)N[C@@H](CO)C(N)=O [Compound 104] ({Isobutyryl(2-(3-CN-5-F-Ph))-βAla}-[d(β3hD)]GTFTSDYSI[Aib]LDKIAQK([AEEA-AEEA-γGlu-C20 diacid])AFVQWLIAGGPSSGAPPPS-NH2),EC50,[1]; [5],100 to 1000 nM
same,Emax,[1]; [6],66%
same,EC50,[2]; [7],> 1000 nM
same,EC50,[3]; [8],> 1000 nM
same,EC50,[4]; [9],100 to 1000 nM
same,Emax,[4]; [10],60%
